Results on seven molecules are retold here after ChEMBL document CHEMBL3045008, “Toxicity, inheritance of fenpyroximate resistance, and detoxification-enzyme levels in a laboratory-selected fenpyroximate-resistant strain of Tetranychus urticae Koch (Acari: Tetranychidae)” (2011).

What all share (assay type): functional
Assay [1] has as its system Tetranychus urticae. Briefly: Resistant ratio, LC50 for Tetranychus urticae FPY 14 (two-spotted spider mite) to LC50 for Tetranychus urticae GSS.
The test system of assay [2] is Tetranychus urticae. Description: Insecticidal activity against Tetranychus urticae FPY 14 (two-spotted spider mite) assessed as mortality at 26 +/- 2 degC with 60 +/- 5% RH for first 24 hr.
In assay [3] the test system is Tetranychus urticae. Description: Insecticidal activity against Tetranychus urticae GSS (two-spotted spider mite) assessed as mortality at 26 +/- 2 degC with 60 +/- 5% RH for first 24 hr.

Turning to `C#CCOS(=O)OC1CCCCC1Oc1ccc(C(C)(C)C)cc1` (configuration not stated) [PROPARGITE], the RatioLC50 in the assay with Tetranychus urticae [1] stood at 6.43. Also, the LC50 with Tetranychus urticae [2] amounted to 482.52 mgAi/L; in the assay on Tetranychus urticae [3] it was 75 mgAi/L.

On to `CCOP(=S)(OCC)Oc1nc(Cl)c(Cl)cc1Cl` [CHLORPYRIFOS], for which, in the assay on Tetranychus urticae [1], the RatioLC50 worked out at 6.9. The values for the LC50 with Tetranychus urticae [2] and with Tetranychus urticae [3] were 85.84 mgAi/L and 12.44 mgAi/L, respectively.

Turning to `CC[C@H](C)[C@H]1O[C@]2(C=C[C@@H]1C)C[C@@H]1C[C@@H](C/C=C(\C)[C@@H](O[C@H]3C[C@H](OC)[C@@H](O[C@H]4C[C@H](OC)[C@@H](O)[C@H](C)O4)[C@H](C)O3)[C@@H](C)/C=C/C=C3\CO[C@@H]4[C@H](O)C(C)=C[C@@H](C(=O)O1)[C@]34O)O2.CO[C@H]1C[C@H](O[C@H]2[C@H](C)O[C@@H](O[C@@H]3/C(C)=C/C[C@@H]4C[C@@H](C[C@]5(C=C[C@H](C)[C@@H](C(C)C)O5)O4)OC(=O)[C@@H]4C=C(C)[C@@H](O)[C@H]5OC/C(=C\C=C\[C@@H]3C)[C@]54O)C[C@@H]2OC)O[C@@H](C)[C@@H]1O` [ABAMECTIN], the RatioLC50 with Tetranychus urticae [1] stood at 7.8. Further, the LC50 in the assay with Tetranychus urticae [2] is given as 1.56 mgAi/L; in the assay on Tetranychus urticae [3], 0.2 mgAi/L.

Take `Cc1nn(C)c(Oc2ccccc2)c1/C=N/OCc1ccc(C(=O)OC(C)(C)C)cc1` [FENPYROXYMATE]: in the assay with Tetranychus urticae [2], the LC60 worked out at 319.1 mgAi/L and the LC90 is recorded as 1637.86 mgAi/L. For the same molecule, in the assay on Tetranychus urticae [3], the LC60 came to 5.1 mgAi/L and the LC90 is 29.5 mgAi/L.

On to `Cc1ccc(/N=C/N(C)/C=N/c2ccc(C)cc2C)c(C)c1` [AMITRAZ], for which the RatioLC50 in the assay on Tetranychus urticae [1] was determined as 2.78. Besides, the LC50 in the assay with Tetranychus urticae [2] was determined as 167.13 mgAi/L; with Tetranychus urticae [3] it was 60.07 mgAi/L.

As to `Clc1ccccc1-c1nnc(-c2ccccc2Cl)nn1` [CLOFENTEZINE], in the assay with Tetranychus urticae [1], the RatioLC50 is 4.78. The LC50 in the assay with Tetranychus urticae [2] is 68.52 mgAi/L; with Tetranychus urticae [3] it was 14.32 mgAi/L.

Regarding `Cc1c(COC(=O)[C@@H]2[C@H](/C=C(\Cl)C(F)(F)F)C2(C)C)cccc1-c1ccccc1` (relative stereo) [BIFENTHRIN], the RatioLC50 with Tetranychus urticae [1] is on record as below 1. Moreover, the LC50 stood at 12.77 mgAi/L in the assay on Tetranychus urticae [2] and 54.53 mgAi/L with Tetranychus urticae [3].
